Data published in patent US10239849B2 (Merck Sharp & Dohme Corp., priority 2015, dated 2019).

How the values were obtained:
[1] = target: T1, glutathione-S-transferase (GST) tagged LXRbeta LBD (ligand binding domain) (Homo sapiens, UniProt P55055); experiment: LanthaScreen TR-FRET Liver X Receptor Coactivator Assay, LXR beta-LBD; assay type: biochemical; conditions: for Emax: read-out: LXR beta activity at max dose (%) (Emax); for EC50: potency (Inflection Point) of co-activator recruitment, TR-FRET, read-out: LXR beta IP
T1 construct: purchased Invitrogen pv4658.pps
T1 sequence (P55055 222-460 limits assumed): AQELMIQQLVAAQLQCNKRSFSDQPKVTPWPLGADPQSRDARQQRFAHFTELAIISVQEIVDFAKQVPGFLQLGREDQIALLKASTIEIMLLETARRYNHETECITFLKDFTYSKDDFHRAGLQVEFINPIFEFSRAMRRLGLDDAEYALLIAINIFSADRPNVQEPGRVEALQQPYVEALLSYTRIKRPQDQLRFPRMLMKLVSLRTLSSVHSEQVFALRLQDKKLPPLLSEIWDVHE
Experimental: (§1) While running the LanthaScreen™ TR-FRET Liver X Receptor Coactivator Assay, LXR alpha-LBD or LXR beta-LBD was added to ligand test compounds followed by addition of a mixture of a fluorescein-labelled coactivator peptide and terbium-conjugated anti-GST antibody. After an incubation period at room temperature, TR-FRET (time-resolved fluorescence resonance energy transfer) was measured using a filter-based instrument capable of TR-FRET, e.g. PerkinElmer Envision.

[2] = target: T2, glutathione-S-transferase (GST) tagged LXRalpha LBD (ligand binding domain) (Homo sapiens, UniProt Q13133); experiment: LanthaScreen TR-FRET Liver X Receptor Coactivator Assay, LXR alpha-LBD; assay type: biochemical; conditions: for Emax: read-out: LXR alpha activity at max dose (%) (Emax); for EC50: potency (Inflection Point) of co-activator recruitment, TR-FRET, read-out: LXR alpha IP
T2 construct: purchased Invitrogen pv4655
T2 sequence (Q13133 209-447 limits assumed): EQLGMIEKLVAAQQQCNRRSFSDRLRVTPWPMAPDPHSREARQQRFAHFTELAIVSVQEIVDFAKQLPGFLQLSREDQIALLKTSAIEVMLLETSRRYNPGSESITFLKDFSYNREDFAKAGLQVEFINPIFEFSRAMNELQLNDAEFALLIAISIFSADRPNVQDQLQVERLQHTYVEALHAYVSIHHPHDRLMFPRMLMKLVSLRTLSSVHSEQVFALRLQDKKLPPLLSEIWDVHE
Experimental: as §1

[3] = efficacy in relation to reference dual agonist T1317

CC(C)C(O)(C(=O)N1CCN(c2ncc(-c3cc(Cl)c(C(=O)N(C)C)c(Cl)c3)cc2C#N)CC1)C(F)(F)F (single isomer, unassigned) [Example 7-5, 2,6-dichloro-4-(5-cyano-6-{4-[2-hydroxy-3-methyl-2-(trifluoromethyl)butanoyl]piperazin-1-yl}pyridin-3-yl)-N,N-dimethylbenzamide]
Emax [1, 3]: 93% | EC50 [1]: 12 nM | Emax [2, 3]: 41% | EC50 [2]: 929 nM

CC(C)C(O)(C(=O)N1CCN(c2ncc(-c3cc(Cl)c(C(=O)N(C)C)c(Cl)c3)cc2C#N)CC1)C(F)(F)F (single isomer, unassigned) [Example 7-6, 2,6-dichloro-4-(5-cyano-6-{4-[2-hydroxy-3-methyl-2-(trifluoromethyl)butanoyl]piperazin-1-yl}pyridin-3-yl)-N,N-dimethylbenzamide]
LXR beta activity at max dose (%) (Emax) [1, 3]: 79% | EC50 [1]: 34 nM | LXR alpha activity at max dose (%) (Emax) [2, 3]: 28% | EC50 [2]: 760 nM

CN(C)C(=O)c1ccc(-c2cnc(N3CCN(S(=O)(=O)c4c(Cl)cccc4Cl)CC3)c(C#N)c2)cc1Cl [Example 1-1, 2-chloro-4-(5-cyano-6-{4-[(2,6-dichlorophenyl)sulfonyl]piperazin-1-yl}pyridin-3-yl)-N,N-dimethylbenzamide]
Emax [1, 3]: 124% | EC50 [1]: 7 nM | Emax [2, 3]: 55% | EC50 [2]: 690 nM

CN(C)C(=O)c1ccc(-c2cnc(N3CCN(S(=O)(=O)C4CC4)CC3)c(C#N)c2)cc1Cl [Example 1-2, 2-chloro-4-{5-cyano-6-[4-(cyclopropylsulfonyl)piperazin-1-yl]pyridin-3-yl}-N,N-dimethylbenzamide]
Emax [1, 3]: 68% | EC50 [1]: 543 nM | Emax [2, 3]: 37% | EC50 [2]: 22500 nM

CN(C)C(=O)c1ccc(-c2cnc(N3CCN(S(=O)(=O)C(F)F)CC3)c(C#N)c2)cc1Cl [Example 1-3, 2-chloro-4-(5-cyano-6-{4-[(difluoromethyl)sulfonyl]piperazin-1-yl}pyridin-3-yl)-N,N-dimethylbenzamide]
Emax [1, 3]: 93% | EC50 [1]: 200 nM | Emax [2, 3]: 52% | EC50 [2]: 10500 nM

CCC(C)S(=O)(=O)N1CCN(c2ncc(-c3ccc(C(=O)N(C)C)c(Cl)c3)cc2C#N)CC1 (centres unmarked) [Example 1-4, 2-chloro-4-(5-cyano-6-{4-[(1-methylpropyl)sulfonyl]piperazin-1-yl}pyridin-3-yl)-N,N-dimethylbenzamide]
Emax [1, 3]: 81% | EC50 [1]: 279 nM | Emax [2, 3]: 44% | EC50 [2]: 49000 nM

CN(C)C(=O)c1ccc(-c2cnc(N3CCN(S(=O)(=O)c4cccnc4)CC3)c(C#N)c2)cc1Cl [Example 1-5, 2-chloro-4-{5-cyano-6-[4-(pyridin-3-ylsulfonyl)piperazin-1-yl]pyridin-3-yl}-N,N-dimethylbenzamide]
Emax [1, 3]: 85% | EC50 [1]: 939 nM | Emax [2, 3]: 31% | EC50 [2]: 60500 nM

CN(C)C(=O)c1ccc(-c2cnc(N3CCN(S(=O)(=O)c4cccs4)CC3)c(C#N)c2)cc1Cl [Example 1-6, 2-chloro-4-{5-cyano-6-[4-(thiophen-2-ylsulfonyl)piperazin-1-yl]pyridin-3-yl}-N,N-dimethylbenzamide]
Emax [1, 3]: 77% | EC50 [1]: 31 nM | Emax [2, 3]: 23% | EC50 [2]: 6840 nM

CN(C)C(=O)c1ccc(-c2cnc(N3CCN(S(=O)(=O)C4CCCCC4)CC3)c(C#N)c2)cc1Cl [Example 1-7, 2-chloro-4-{5-cyano-6-[4-(cyclohexylsulfonyl)piperazin-1-yl]pyridin-3-yl}-N,N-dimethylbenzamide]
Emax [1, 3]: 79% | EC50 [1]: 337 nM | Emax [2, 3]: 39% | EC50 [2]: 14200 nM

CN(C)C(=O)c1ccc(-c2cnc(N3CCN(S(=O)(=O)c4ccccc4F)CC3)c(C#N)c2)cc1Cl [Example 1-8, 2-chloro-4-(5-cyano-6-{4-[(2-fluorophenyl)sulfonyl]piperazin-1-yl}pyridin-3-yl)-N,N-dimethylbenzamide]
Emax [1, 3]: 89% | EC50 [1]: 17 nM | Emax [2, 3]: 34% | EC50 [2]: 12100 nM

CN(C)C(=O)c1ccc(-c2cnc(N3CCN(S(=O)(=O)c4ccccc4C#N)CC3)c(C#N)c2)cc1Cl [Example 1-9, 2-chloro-4-(5-cyano-6-{4-[(2-cyanophenyl)sulfonyl]piperazin-1-yl}pyridin-3-yl)-N,N-dimethylbenzamide]
Emax [1, 3]: 123% | EC50 [1]: 22 nM | Emax [2, 3]: 46% | EC50 [2]: 618 nM

CN(C)C(=O)c1ccc(-c2cnc(N3CCN(S(=O)(=O)Cc4ccccc4F)CC3)c(C#N)c2)cc1Cl [Example 1-10, 2-chloro-4-(5-cyano-6-{4-[(2-fluorobenzyl)sulfonyl]piperazin-1-yl}pyridin-3-yl)-N,N-dimethylbenzamide]
Emax [1, 3]: 65% | EC50 [1]: 162 nM | Emax [2, 3]: 18% | EC50 [2]: 733 nM

CN(C)C(=O)c1ccc(-c2cnc(N3CCN(S(=O)(=O)c4ccccc4Cl)CC3)c(C#N)c2)cc1Cl [Example 1-11, 2-chloro-4-(6-{4-[(2-chlorophenyl)sulfonyl]piperazin-1-yl}-5-cyanopyridin-3-yl)-N,N-dimethylbenzamide]
Emax [1, 3]: 108% | EC50 [1]: 8 nM | Emax [2, 3]: 51% | EC50 [2]: 3410 nM

CN(C)C(=O)c1ccc(-c2cnc(N3CCN(S(=O)(=O)Cc4ccccc4Cl)CC3)c(C#N)c2)cc1Cl [Example 1-12, 2-chloro-4-(6-{4-[(2-chlorobenzyl)sulfonyl]piperazin-1-yl}-5-cyanopyridin-3-yl)-N,N-dimethylbenzamide]
Emax [1, 3]: 97% | EC50 [1]: 28 nM | Emax [2, 3]: 27% | EC50 [2]: 7400 nM

CN(C)C(=O)c1ccc(-c2cnc(N3CCN(S(=O)(=O)c4ccccc4C(F)(F)F)CC3)c(C#N)c2)cc1Cl [Example 1-13, 2-chloro-4-[5-cyano-6-(4-{[2-(trifluoromethyl)phenyl]sulfonyl}piperazin-1-yl)pyridin-3-yl]-N,N-dimethylbenzamide]
Emax [1, 3]: 127% | EC50 [1]: 11 nM | Emax [2, 3]: 60% | EC50 [2]: 1000 nM

CN(C)C(=O)c1ccc(-c2cnc(N3CCN(S(=O)(=O)c4ccccc4OC(F)(F)F)CC3)c(C#N)c2)cc1Cl [Example 1-14, 2-chloro-4-[5-cyano-6-(4-{[2-(trifluoromethoxy)phenyl]sulfonyl}piperazin-1-yl)pyridin-3-yl]-N,N-dimethylbenzamide]
Emax [1, 3]: 99% | EC50 [1]: 20 nM | Emax [2, 3]: 37% | EC50 [2]: 1050 nM

CC(C)S(=O)(=O)N1CCN(c2ncc(-c3ccc(C(=O)N(C)C)c(Cl)c3)cc2C#N)CC1 [Example 1-15, 2-chloro-4-(5-cyano-6-{4-[(1-methylethyl)sulfonyl]piperazin-1-yl}pyridin-3-yl)-N,N-dimethylbenzamide]
Emax [1, 3]: 86% | EC50 [1]: 437 nM | Emax [2, 3]: 43% | EC50 [2]: 19500 nM

CN(C)C(=O)c1ccc(-c2cnc(N3CCN(S(=O)(=O)c4ccccc4)CC3)c(C#N)c2)cc1Cl [Example 1-16, 2-chloro-4-{5-cyano-6-[4-(phenylsulfonyl)piperazin-1-yl]pyridin-3-yl}-N,N-dimethylbenzamide]
Emax [1, 3]: 69% | EC50 [1]: 144 nM | Emax [2, 3]: 63% | EC50 [2]: 50500 nM

CN(C)C(=O)c1ccc(-c2cnc(N3CCN(S(=O)(=O)c4c(F)cccc4F)CC3)c(C#N)c2)cc1Cl [Example 1-17, 2-chloro-4-(5-cyano-6-{4-[(2,6-difluorophenyl)sulfonyl]piperazin-1-yl}pyridin-3-yl)-N,N-dimethylbenzamide]
Emax [1, 3]: 98% | EC50 [1]: 43 nM | Emax [2, 3]: 36% | EC50 [2]: 4840 nM

CN(C)C(=O)c1ccc(-c2cnc(N3CCN(S(=O)(=O)c4c(Cl)cccc4C(F)(F)F)CC3)c(C#N)c2)cc1Cl [Example 1-18, 2-chloro-4-[6-(4-{[2-chloro-6-(trifluoromethyl)phenyl]sulfonyl}piperazin-1-yl)-5-cyanopyridin-3-yl]-N,N-dimethylbenzamide]
Emax [1, 3]: 126% | EC50 [1]: 151 nM | Emax [2, 3]: 62% | EC50 [2]: 1670 nM

CN(C)C(=O)c1ccc(-c2cnc(N3CCN(C(=O)c4c(F)cccc4F)CC3)c(C#N)c2)cc1Cl [Example 2-1, 2-chloro-4-(5-cyano-6-{4-[(2,6-difluorophenyl)carbonyl]piperazin-1-yl}pyridin-3-yl)-N,N-dimethylbenzamide]
Emax [1, 3]: 40% | EC50 [1]: 212 nM | Emax [2, 3]: 23% | EC50 [2]: 8860 nM

CN(C)C(=O)c1ccc(-c2ccc(N3CCN(C(=O)c4c(F)cccc4F)CC3)c(Cl)c2)cc1Cl [Example 4-1, 3,3′-dichloro-4′-{4-[(2,6-difluorophenyl)carbonyl]piperazin-1-yl}-N,N-dimethylbiphenyl-4-carboxamide]
Emax [1, 3]: 90% | EC50 [1]: 833 nM
